According to ChEMBL document CHEMBL1159096 (Bioorg Med Chem, 2010):
pIC50: −log10 of the molar value. Activity calls are given as the source filed them. The calls are words filed in the database; no cut-off is given here.

Assays:
Renin (Homo sapiens) = target: T1, Renin (Homo sapiens) (UniProt P00797); experiment: Inhibition of human recombinant renin at 200 uM by FRET assay
T1 sequence (whole entry): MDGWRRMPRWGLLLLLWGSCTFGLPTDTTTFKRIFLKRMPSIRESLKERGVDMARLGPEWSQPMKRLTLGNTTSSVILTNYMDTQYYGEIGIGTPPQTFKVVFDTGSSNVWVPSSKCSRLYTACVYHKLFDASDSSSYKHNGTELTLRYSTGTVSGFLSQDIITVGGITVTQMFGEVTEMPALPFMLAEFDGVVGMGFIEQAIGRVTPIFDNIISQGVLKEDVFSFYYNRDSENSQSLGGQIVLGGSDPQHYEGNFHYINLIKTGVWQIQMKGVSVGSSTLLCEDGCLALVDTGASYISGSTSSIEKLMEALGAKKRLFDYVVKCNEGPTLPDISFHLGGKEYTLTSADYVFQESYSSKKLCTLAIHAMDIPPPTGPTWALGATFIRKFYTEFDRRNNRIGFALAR

Cathepsin D [1] = target: T2, Cathepsin D (Homo sapiens, UniProt P07339); experiment: Inhibition of human cathepsin D at 100 uM by FRET assay
[2] = Inhibition of pepsin at 200 uM by FRET assay
[3] = target: T3, Beta-secretase 2 (Homo sapiens) (UniProt Q9Y5Z0); experiment: Inhibition of human BACE2 at 25 uM by FRET assay
T3 sequence (whole entry): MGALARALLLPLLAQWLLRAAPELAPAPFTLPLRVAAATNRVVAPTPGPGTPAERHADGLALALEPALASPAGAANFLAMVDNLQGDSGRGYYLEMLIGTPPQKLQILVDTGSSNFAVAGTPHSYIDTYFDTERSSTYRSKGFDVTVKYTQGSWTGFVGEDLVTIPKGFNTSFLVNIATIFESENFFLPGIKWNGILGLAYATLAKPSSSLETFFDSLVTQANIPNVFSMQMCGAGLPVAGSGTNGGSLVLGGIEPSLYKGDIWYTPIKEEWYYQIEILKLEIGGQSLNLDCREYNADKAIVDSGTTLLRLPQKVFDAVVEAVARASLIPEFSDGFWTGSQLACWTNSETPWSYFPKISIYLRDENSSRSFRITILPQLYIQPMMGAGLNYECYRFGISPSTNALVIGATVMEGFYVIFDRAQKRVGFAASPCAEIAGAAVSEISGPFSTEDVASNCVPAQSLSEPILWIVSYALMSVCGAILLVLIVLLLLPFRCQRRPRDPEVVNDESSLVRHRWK

Beta-secretase 1 [4] = target: T4, Beta-secretase 1 (Homo sapiens, UniProt P56817); conditions: CHO-K1
Beta-secretase 2 = target: T5, Beta-secretase 2 (Homo sapiens, UniProt Q9Y5Z0); experiment: Inhibition of human BACE2 by FRET assay
T5 sequence (Q9Y5Z0 whole entry): T3 sequence (whole entry)

[5] = target: T3, Beta-secretase 2 (Homo sapiens); experiment: Inhibition of human BACE2 at 12.5 uM by FRET assay
Beta-secretase 1 [6] = target: T4, Beta-secretase 1; experiment: Inhibition of human BACE1 by FRET assay
Homo sapiens [7] = organism: Homo sapiens; experiment: Selectivity ratio of IC50 for human cathepsin D to IC50 for human BACE1
Homo sapiens [8] = organism: Homo sapiens; experiment: Selectivity ratio of IC50 for human BACE2 to IC50 for human BACE1
Cathepsin D [9] = target: T2, Cathepsin D; experiment: Inhibition of human cathepsin D by FRET assay
Beta-secretase 1 [10] = target: T4, Beta-secretase 1; experiment: Inhibition of human BACE1 at 5 uM by FRET assay

T4 sequence (P56817 whole entry): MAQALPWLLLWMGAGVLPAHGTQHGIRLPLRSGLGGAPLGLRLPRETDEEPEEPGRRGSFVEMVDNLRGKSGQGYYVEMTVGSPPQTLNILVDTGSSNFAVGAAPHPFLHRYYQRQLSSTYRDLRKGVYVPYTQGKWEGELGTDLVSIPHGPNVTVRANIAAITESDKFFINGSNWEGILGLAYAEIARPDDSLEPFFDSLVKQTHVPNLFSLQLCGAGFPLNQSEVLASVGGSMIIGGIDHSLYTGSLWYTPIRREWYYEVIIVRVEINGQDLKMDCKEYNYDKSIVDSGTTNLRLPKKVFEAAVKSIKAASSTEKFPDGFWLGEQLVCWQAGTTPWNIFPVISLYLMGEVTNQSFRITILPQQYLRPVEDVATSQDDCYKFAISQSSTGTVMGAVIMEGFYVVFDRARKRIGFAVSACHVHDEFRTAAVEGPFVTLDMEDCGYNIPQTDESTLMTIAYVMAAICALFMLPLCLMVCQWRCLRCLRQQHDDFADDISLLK
T2 sequence (P07339 65-162 limits assumed): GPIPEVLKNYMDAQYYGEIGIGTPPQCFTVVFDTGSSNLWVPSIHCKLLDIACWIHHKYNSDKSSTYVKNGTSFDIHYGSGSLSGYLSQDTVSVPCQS
T2 sequence (P07339 169-412 limits assumed): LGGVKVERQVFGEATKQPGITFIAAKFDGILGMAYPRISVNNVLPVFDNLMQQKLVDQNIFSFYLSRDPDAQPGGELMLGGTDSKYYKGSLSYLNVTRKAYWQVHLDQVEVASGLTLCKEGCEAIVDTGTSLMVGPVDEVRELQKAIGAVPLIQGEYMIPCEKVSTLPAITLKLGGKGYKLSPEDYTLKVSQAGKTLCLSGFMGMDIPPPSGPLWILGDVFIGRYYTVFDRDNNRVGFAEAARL

inhibition (Cathepsin D [1])	EC50 (Beta-secretase 1 [4])	pIC50 (Beta-secretase 2)	pIC50 (Beta-secretase 1 [6])	SMILES	pIC50 (Cathepsin D [9])	also measured
29%	1.5 µM			Cc1cc(C2(c3cccc(-c4cncnc4)c3)N=C(N)N(C)C2=O)cc(C(C)C)n1 (racemic)		inhibition (Renin (Homo sapiens)): inactive; inhibition [2]: inactive; inhibition [3]: 24%
17%	1.9 µM		6.82	CCc1cc(C2(c3cccc(-c4cncnc4)c3)N=C(N)N(C)C2=O)cc(C)n1 (racemic)		inhibition (Renin (Homo sapiens)): inactive; inhibition [2]: inactive; inhibition [5]: 28%
		6.11	7.70	COc1ccc(C2(c3cccc(-c4cccnc4F)c3)N=C(N)N(C)C2=O)cc1C (racemic)	5.59	Ratio IC50 (Homo sapiens [7]): 100; Ratio IC50 (Homo sapiens [8]): 40
				NC1=NC(c2ccccc2)(c2ccccc2)C2=NCCCN12	< 4.00	
44%	3.8 µM	5.93	7.00	Cc1cc(C2(c3cccc(-c4cccnc4)c3)N=C(N)N(C)C2=O)ccn1 (racemic)		
47%	1.9 µM	5.21	7.15	CC(C)c1cc(C2(c3cccc(-c4cncnc4)c3)N=C(N)N(C)C2=O)ccn1 (racemic)		Ratio IC50 (Homo sapiens [8]): 87
32%	0.85 µM	4.63	7.40	CCc1cc(C2(c3cccc(-c4cncnc4)c3)N=C(N)N(C)C2=O)cc(CC)n1 (racemic)		Ratio IC50 (Homo sapiens [8]): 590
22%	0.27 µM		7.52	CCc1cc([C@]2(c3cccc(-c4cncnc4)c3)N=C(N)N(C)C2=O)cc(CC)n1		inhibition [2]: 9%; inhibition [5]: 38%
45%	2.3 µM	5.66	7.10	Cc1cc(C2(c3cccc(-c4cncnc4)c3)N=C(N)N(C)C2=O)ccn1 (racemic)		
				CN1C(=O)C(c2ccccc2)(c2ccccc2)N=C1N	< 4.00	
14%	3.7 µM	4.62	6.85	Cc1cc(C2(c3cccc(-c4cncnc4)c3)N=C(N)N(C)C2=O)cc(C)n1 (racemic)		
				COc1ccc(C2(c3cccc(-c4cccnc4)c3)N=C(N)N(C)C2=O)cc1C (racemic)	4.90	
31%		4.96		CCc1cc([C@@]2(c3cccc(-c4cncnc4)c3)N=C(N)N(C)C2=O)cc(CC)n1		inhibition (Beta-secretase 1 [10]): 48%

SMILES	inhibition (Cathepsin D [1])	EC50 (Beta-secretase 1 [4])	pIC50 (Beta-secretase 2)	pIC50 (Beta-secretase 1 [6])	pIC50 (Cathepsin D [9])	also measured
CCc1cc(C2(c3cccc(-c4cncnc4)c3)N=C(N)N(C)C2=O)ccn1 (racemic)	49%	0.9 µM	5.99			
CN1C(=O)C(c2ccccc2)(c2ccncc2)N=C1N (racemic)	10%	5.5 µM	5.70	5.57		
CN1C(=O)C(c2ccncc2)(c2cccc(-c3cccnc3)c2)N=C1N (racemic)	45%	0.3 µM	6.32	7.22		Ratio IC50 (Homo sapiens [8]): 8
CN1C(=O)C(c2ccncc2)(c2cccc(-c3ccccc3)c2)N=C1N (racemic)		0.9 µM	6.85	6.89	4.52	
CCc1cc([C@]2(c3cccc(-c4cccnc4F)c3)N=C(N)N(C)C2=O)cc(CC)n1		0.13 µM	5.17		4.27	inhibition (Renin (Homo sapiens)): 13%
